Results on three molecules are retold here after US20260216055A1, “PLANT-MINERAL COMPOSITION FOR PH-DEPENDENT REGULATION OF TYPE 3 AQUAPORINS BASED ON ALOE BARBADENSIS” (SKYLAB AG, priority 2022, published 2026).

The conditions of data set [1]: aloin in the extract composition; cited from earlier work.
The test system of another data set is Type 3 aquaporins (AQP3). As to the kind of experiment: Amount of Type 3 aquaporins in skin keratinocytes (HaCaT, sandwich ELISA). The conditions noted are these: Table 7 experiment, 24 hours, Aloe extract 0.01%, trimethylglycine 1%, combination 0.01% + 1% equivalent to active ingredients, Hydagen Aquaporin 1% for the raw material. In kind it is cell-based. The source says:
At the second stage, the definition of the amount of Type 3 aquaporins in keratinocytes after cultivation under the standard conditions, using the maximum non-toxic concentration of the component from the previous text. To determine the amount of AQP3, a commercially available test with the use of sandwich-type enzyme-linked immunoassay was used. Cells of HaCaT line with the density of 10^5 cells per well were introduced to the 96-well plate. On the next day, the cell medium was removed and replaced with DMEM+5% FBS 50 μL fresh cell medium to maintain cell growth. Next, 50 μL of samples of the composition under the invention was added, and cultivation was performed for 24 hours. In all the tests, 0.20% sodium chloride was added to the cell medium to regulate osmotic balance and to create physiological conditions to cultivate skin cells. The cultivating environment conditions were as follows: humidified atmosphere with 5% CO2 at 37° C. After incubation, cell supernatant was collected, and the amount of Type 3 aquaporins in skin keratinocytes was determined with ELISA method. […] Only after binding the 3 components of the reagent with AQP3 a stable color could be achieved, which was fixed with sulphuric acid and spectropotometrically detected at 450±10 nm wave length. […]
(In general: An ELISA detects its analyte on a solid surface through an enzyme-linked reagent.)

The subject of a further data set is HaCaT cells. The data set can be described thus: Cytotoxicity estimation of the components on skin keratinocytes (MTT). It counts as cell-based. To be noted: 24 hours. The source says:
The study method is based on the definition of the amount of Type 3 aquaporins in epidermal keratinocytes after adding the components of the composition into HaCaT cell culture medium. At the first stage, cytotoxicity of the components is estimated depending on the concentration of components in the composition, be determining the number of survived cells according to MTT concentration with a color dilution method. Cells of HaCaT line were used in the amount of 10 000 cells per well in a 96-well plate. The testing facilities were as follows: humidified atmosphere with 5% CO2 at 37° C. Incubation time equaled 24 hours. For the negative control, purified water without any components of the composition was used. The number of survived cells was registered with MTT at 570 nm. The number of biological replicates was 3.

For a further data set, the system named is skin. The conditions noted are these: 2% in body cleansers, 12 hours after the contact with the product; cited from earlier work.

Take `O=C1c2c(O)cccc2C([C@@H]2O[C@H](CO)[C@@H](O)[C@H](O)[C@H]2O)c2cc(CO)cc(O)c21` (stereo partly drawn) [Aloin]: in data set [1], the “UV radiation neutralized when applied on skin surface” value was “up to 30%”.
For the molecule `C[N+](C)(C)CC(=O)[O-]` [Trimethylglycine, trimethylglycine], in the data set on Type 3 aquaporins (AQP3), the “Increase of AQP3 amount in relation to the negative control, %” value is listed as “+17.92%”. Further, the “Amount of AQP3” value in the data set on Type 3 aquaporins (AQP3) (negative control 5.58 ± 0.24) is 6.58 ± 1.08 ng/mL. For the same molecule, the “Vitality of cells, % when adding the components of the composition into the cultural medium” value in the data set on HaCaT cells (0.03% (weight %) in medium) was 98.8 ± 3.47%; with HaCaT cells (0.10% (weight %) in medium), 99.9 ± 1.47%; with HaCaT cells (0.25% (weight %) in medium) it was 95.4 ± 2.94%; in the data set on HaCaT cells (1.00% (weight %) in medium), 93.5 ± 1.66%; in the data set on HaCaT cells (10.00% (weight %) in medium), 90.3 ± 6.82%.
`CCCCCCCCCCCCOS(=O)(=O)[O-].[Na+]` [sodium lauryl sulfate]: the Transepidermal water loss with skin is given as 68.9 g/m^2/h.
